Positions count from the first letter of the chain named. Like-named read-outs stand apart in the source and are kept apart here.
Columns and labels:
Huh7 cells = assay: Total nuclear count in Huh7 cells; format: cell-based, human; conditions: effective concentrations
Experimental: Indeed, NUV-244 has no effect on total nuclear count at effective concentrations in Huh7 cells and we frequently observed mitotic cells in the Hoechst channel even after 24h incubation (data not shown). This indicates low toxicity of NUV-244 at effective concentrations. We validated this by recording the growth curves of different cell lines upon NUV-244 incubation and found no effects of 1μM or 5μM NUV-244 on the proliferative capacity of Hep3B cells, or Huh7 and LX-2 cells compared to DMSO treated cells (Figure 6A). PNPLA3 I148M expression has been reported to sensitize cells against lipotoxicity and to induce mitochondrial dysfunction.[32]^,[34]^,[35]^,[36]^,[37]
Assay plates were evaluated based on Z’ scores (>0.6) and signal-to-background ratio (>12) using Genedata Screener® for HTS and Condoseo modules (Genedata, Switzerland). Normalization, quality control, and fitting curves for EC50 determination of tested compounds were performed with Genedata Screener® for high-content screening and Genedata Condoseo modules (Genedata AG, Basel, Switzerland). More than 820K cpds were screened on 791 1536W plates in 11 runs covering three weeks of primary HTS. Automated image analysis routines were set up to quantify the number, morphology and intensity of nuclei, lipid droplets and the intensity of PNPLA3 I148M-tagRFP on lipid droplets. […]

PNPLA3 I148M-tagRFP = target: T1, PNPLA3 I148M-tagRFP (Homo sapiens, UniProt Q9NST1, I148M); assay: Huh7 PNPLA3 I148M-tagRFP reduction on lipid droplets (high-content imaging); format: cell-based
T1 construct: host or cells: Huh7
T1 sequence (Q9NST1 1-481 I148M): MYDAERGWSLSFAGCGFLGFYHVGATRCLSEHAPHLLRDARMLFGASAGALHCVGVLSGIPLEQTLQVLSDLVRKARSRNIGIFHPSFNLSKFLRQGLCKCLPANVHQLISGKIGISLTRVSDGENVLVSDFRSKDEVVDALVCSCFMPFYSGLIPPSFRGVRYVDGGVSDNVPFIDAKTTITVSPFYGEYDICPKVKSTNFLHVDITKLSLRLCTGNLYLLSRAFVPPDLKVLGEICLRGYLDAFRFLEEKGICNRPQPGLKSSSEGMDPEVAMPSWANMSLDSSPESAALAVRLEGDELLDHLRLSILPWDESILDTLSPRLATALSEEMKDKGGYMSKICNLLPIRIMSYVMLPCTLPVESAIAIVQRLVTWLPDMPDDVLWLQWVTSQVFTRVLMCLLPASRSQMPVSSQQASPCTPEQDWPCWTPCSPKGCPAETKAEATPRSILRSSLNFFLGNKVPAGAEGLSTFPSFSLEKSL
Experimental: For dose-response cells were seeded at 4000 c/30 μl per well in 384 well plates (Revvity, Waltham, MA, USA, PhenoPlate 384-well microplate, #6057308) and stored in a 37°C incubator with 5% CO2 and 95% humidity overnight. Compounds, serially diluted, and DMSO controls were added, and cells were incubated for another 24h. Cells were fixed and stained with a mixture of Paraformaldehyde (final 1%, Electron Microscopy Science), BODIPY (final 38 nM, Invitrogen) and Hoechst 33342 (final 2 μg/ml, Biotium) diluted in PBS for 30 min at room temperature in the dark (no wash off).
Confocal images were acquired using the Opera Phenix system (Revvity, USA) with a 10x, 20x or 40x water objective and excitation at 405 nm (Hoechst), 488 nm (BODIPY), and 532 nm (PNPLA3 I148M-tagRFP).
Images were analyzed using Harmony (Revvity) and MetaXpress software (Molecular Devices, USA) to quantify lipid droplet morphology and PNPLA3 I148M-tagRFP intensity.
Assay plates were evaluated based on Z’ scores (>0.6) and signal-to-background ratio (>12) using Genedata Screener® for HTS and Condoseo modules (Genedata, Switzerland). Normalization, quality control, and fitting curves for EC50 determination of tested compounds were performed with Genedata Screener® for high-content screening and Genedata Condoseo modules (Genedata AG, Basel, Switzerland). More than 820K cpds were screened on 791 1536W plates in 11 runs covering three weeks of primary HTS. Automated image analysis routines were set up to quantify the number, morphology and intensity of nuclei, lipid droplets and the intensity of PNPLA3 I148M-tagRFP on lipid droplets. Toxic or autofluorescent compounds were excluded from the hitlist based on nuclear count, area, and intensity measurements as well as lipid droplet staining intensity compared to control cells.

PNPLA3 WT = target: T2, PNPLA3 WT (Homo sapiens, UniProt Q9NST1); assay: nanoDSF thermal shift, PNPLA3 WT protein; format: binding; conditions: ligand 25 μM
T2 construct: Full-length wild-type PNPLA3 (Q9NST1), mutant PNPLA3 (I148M), and PNPLA2 (Q96AD5) were cloned into the pVL1393 vector; Flag (N); made in house; host or cells: SF9 insect cells (baculovirus, pVL1393)
T2 sequence (Q9NST1 1-481): T1 sequence (Q9NST1 1-481 I148M) with M148I
Excerpt: To investigate the mode of action of NUV-244, we evaluated its direct binding to the PNPLA3 I148M protein using nano differential scanning fluorimetry (nanoDSF). In this assay, compounds that bind to a target protein can lead to thermal stabilization, preventing protein denaturation, which is reflected in a shift of the protein melting curve.
Full-length wild-type PNPLA3 (Q9NST1), mutant PNPLA3 (I148M), and PNPLA2 (Q96AD5) were cloned into the pVL1393 vector with an N-terminal Flag-Tag. Proteins were expressed in SF9 cells infected at a multiplicity of infection (MOI) of 1 for 72 hours. Protein purification was performed using a two-step process. The first step involved affinity purification using M2 anti-Flag agarose beads. This was followed by gel filtration chromatography using a Superdex 200 column. Thermal melting experiments were carried out using a Prometheus NT.48 instrument (NanoTemper Technologies). Proteins were prepared in 20 mM Tris-HCl pH 7.4, 100 mM NaCl, 5 % Glycerol, 2 mM DTT and 0.2 mg/mL was used as a final concentration in 50 μL volume. For binding experiments, ligands were added to the mixture at a final concentration of 25 μM, DMSO was used as control. […] The intrinsic protein fluorescence at 330 and 350 nm was recorded. Data were analysed using Prometheus NT.48 software. Thermal shifts (ΔTm) were calculated, and Z-scores greater than 6 indicated robust stabilization. […]

effect on total nuclear count (Huh7 cells): no effect
EC50 (PNPLA3 I148M-tagRFP; HTS batch (hit), 24h, two independent determinations, read-out: EC50 Huh7, PNPLA3 I148M-tagRFP reduction): 2.28e-07 ± 3.1e-08 M
EC50 (PNPLA3 I148M-tagRFP; representative dose-response curve, Figure 2D, read-out: EC50 [M] Huh7, PNPLA3-I148M-tagRFP): 2.05e-07 M
EC50 (PNPLA3 I148M-tagRFP; representative dose-response curve, Figure 3B, read-out: EC50 [M] Huh7, PNPLA3 I148M-tagRFP): 3.51e-07 M
EC50 (PNPLA3 I148M-tagRFP; resynthesis, representative curve, Figure 4C, read-out: EC50 [M] Huh7, PNPLA3 I148M-tagRFP intensity on lipid droplets): 3.8e-07 M
ΔTm PNPLA3 WT (PNPLA3 WT): 7.02 °C
SMILES: Cc1cccc(Cc2nc(C)c(C(=O)Nc3cc(O)ccc3Cl)s2)c1 [NUV-244]

From article PMC12049818, “Identification of NUV-244 as a PNPLA3 I148M degrading small molecule” (iScience, 2025)
